Assay results taken from PMC6331789, “Phytochemicals from Ruta graveolens Activate TAS2R Bitter Taste Receptors and TRP Channels Involved in Gustation and Nociception” (Molecules, 2015).

target: T1, TRPV1 (Homo sapiens, UniProt Q8NER1); experiment: In vitro Fluo8-NW calcium assay (FLIPR) on HEK293T cells stably overexpressing TRPV1; assay type: cell-based; settings: not given
T1 construct: expressed in transfected cells
Excerpt: (§1) Pure phytochemicals were submitted to in vitro assays with a platform of twenty cloned receptors of the bitter taste TAS2R family and four receptors of the TRP family related to the perception of taste and somatosensory sensations. All experiments have been repeated three times, each time with four replicates. […] For simplicity, only those bitter taste receptors having reproducible positive assay, namely TASR10, 14 and 49, are reported (Table 1).
(§2) For the biological tests, several compounds were purchased as references from different suppliers (Sigma Aldrich, ChromaDex, Irvine, CA, USA, and Tocris Bioscience, Bristol, UK) and dissolved in assay buffer (130 mM NaCl, 5 mM KCl, 1 mM MgCl2, 2 mM CaCl2, 5 mM NaHCO3 and 20 mM HEPES, pH 7.4) or in a mixture of assay buffer and DMSO, never exceeding a final DMSO concentration of 0.5% (v/v) to avoid toxic effects and possible artefacts on transfected cells.
(§3) All human TAS2R and G15Gi1 cDNAs were produced as reported in Bassoli et al. cDNAs for human TRPA1-M5-M8-V1-V4 were cloned into a pcDNA6 expression vector (Invitrogen-Thermo Fisher, Waltham, MA, USA).
(§4) All experiments were performed using HEK293T cells (ATCC).
(§5) For TRP platform experiments, cells were cultured in MEM/EBSS medium (ECB2071L EuroClone, Milan, Italy) plus 10% (v/v) fetal bovine serum (FBS) (26400-044 Gibco, Karlsruhe, Germany) and 1% (v/v) Pen/Strep 10K/10K stock (17-602E Lonza, Basel, Switzerland). Stable cell lines were generated overexpressing each TRP channel, and clones were selected with 500 µg/mL of G418 (ant-gn-5 Invivogen, Karlsruhe, Germany). To analyze TRP receptor responses, cells were plated at a concentration of 20,000 cells/well in 384-well plates (GR-4330 Twin Helix srl, Milan, Italy). Cellular responses were measured 24 h after seeding.
For TRPA1-M8-V1-V4 experiments, a solution of Fluo8-NW calcium-sensitive dye (36316 AAT BioQuest, Sunnyvale, CA, USA) was prepared using the assaybuffer and diluting the kit components 1:2 according to the manufacturer’s instructions. Twenty-four hours after seeding, cells were incubated one hour at RT, loaded with 40 µL of Fluo8-NW solution for each well and incubated again for one hour at RT before data acquisition.
(§6) For TRPM5 experiments, cells were loaded 24 h after seeding with a Membrane Potential Dye (R8034 MDC) solution in assay buffer according to the manufacturer’s instructions and incubated at 37 °C for 1 h before acquisition. All experiments were performed using a fluorometric imaging plate reader (FLIPR^TETRA, Molecular Devices equipped with ICCD Camera from Stanford Photonics, INC, (Palo Alto, CA, USA) and kinetics were visualized with Molecular Devices’ Screenworks 3.0 (Sunnyvale, CA, USA).
(§7) For the calculation of concentration-response curves, responses were calculated as the difference between maximal and minimal relative fluorescence unit (RFU) values in a selected time window (11–60 s) and were normalized to the basal well fluorescence (Time Point 1, before compound injection) in order to compensate for differences in cell density (∆F/F0). All of the experiments have been repeated three times, each time with four replicates. All of the results are averages of at least four replicates. Raw data are available in Supplementary Material, Figures S3–S6.

T1 sequence (Q8NER1 whole entry): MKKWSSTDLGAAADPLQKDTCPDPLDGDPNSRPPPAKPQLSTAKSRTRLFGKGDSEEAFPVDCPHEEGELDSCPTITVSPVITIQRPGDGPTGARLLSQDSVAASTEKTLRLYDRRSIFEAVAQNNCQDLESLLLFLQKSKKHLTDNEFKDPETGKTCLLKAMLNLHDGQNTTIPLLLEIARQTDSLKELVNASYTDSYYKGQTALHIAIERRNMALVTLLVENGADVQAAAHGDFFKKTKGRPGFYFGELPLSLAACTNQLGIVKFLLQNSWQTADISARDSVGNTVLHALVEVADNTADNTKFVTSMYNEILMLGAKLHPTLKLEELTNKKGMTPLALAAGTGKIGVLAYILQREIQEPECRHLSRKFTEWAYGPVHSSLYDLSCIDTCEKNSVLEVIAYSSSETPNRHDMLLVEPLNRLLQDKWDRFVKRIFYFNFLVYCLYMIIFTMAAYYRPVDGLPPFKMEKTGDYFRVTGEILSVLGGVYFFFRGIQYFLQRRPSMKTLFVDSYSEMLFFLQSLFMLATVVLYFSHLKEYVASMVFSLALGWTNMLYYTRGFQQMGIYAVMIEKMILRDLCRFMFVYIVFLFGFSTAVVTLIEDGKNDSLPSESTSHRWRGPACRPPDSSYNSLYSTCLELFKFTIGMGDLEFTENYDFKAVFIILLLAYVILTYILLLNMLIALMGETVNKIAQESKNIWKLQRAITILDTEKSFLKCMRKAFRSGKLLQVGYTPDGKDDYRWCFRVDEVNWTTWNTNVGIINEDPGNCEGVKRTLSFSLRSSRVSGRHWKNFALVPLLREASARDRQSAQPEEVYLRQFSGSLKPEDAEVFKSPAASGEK

| Compound | Activity on TRPV1 (in words) |
| --- | --- |
| C=CC(C)(C)c1cc2cc3c(cc2oc1=O)OC(C(C)(C)OC(C)=O)C3 (centres unmarked) [Compound 2, rutamarin] | agonist |

same assay, conditions: single dose, qualitative

| Compound | TRPV1 screening result |
| --- | --- |
| C[C@@H]1O[C@@H](OC[C@H]2O[C@@H](Oc3c(-c4ccc(O)c(O)c4)oc4cc(O)cc(O)c4c3=O)[C@H](O)[C@@H](O)[C@@H]2O)[C@H](O)[C@H](O)[C@H]1O [Compound 1, rutin] | − |
| C=CC(C)(C)c1cc2cc3c(cc2oc1=O)OC(C(C)(C)OC(C)=O)C3 (centres unmarked) [Compound 2, rutamarin] | + |
| COc1c2ccoc2cc2oc(=O)ccc12 [Compound 3, bergapten] | − |
| COc1c2occc2cc2ccc(=O)oc12 [Compound 4, xanthotoxin] | − |
| COc1c2ccoc2c(OC)c2oc(=O)ccc12 [Compound 5, isopimpinellin] | − |
| COc1cc2nc3occc3c(OC)c2cc1OC [Compound 7, kokusaginin] | − |
| COc1ccc2c(OC)c3ccoc3nc2c1OC [Compound 8, skimmianine] | − |
| CCCCCCCCCC(C)=O [Compound 9, 2-undecanone] | − |
| CCCCCCCC(C)=O [Compound 10, 2-nonanone] | − |

target: T2, TRPM5 (Homo sapiens, UniProt Q9NZQ8); experiment: In vitro membrane potential dye assay (FLIPR) on HEK293T cells stably overexpressing TRPM5; assay type: cell-based; settings: not given
T2 construct: expressed in transfected cells
T2 sequence (Q9NZQ8 1-1165): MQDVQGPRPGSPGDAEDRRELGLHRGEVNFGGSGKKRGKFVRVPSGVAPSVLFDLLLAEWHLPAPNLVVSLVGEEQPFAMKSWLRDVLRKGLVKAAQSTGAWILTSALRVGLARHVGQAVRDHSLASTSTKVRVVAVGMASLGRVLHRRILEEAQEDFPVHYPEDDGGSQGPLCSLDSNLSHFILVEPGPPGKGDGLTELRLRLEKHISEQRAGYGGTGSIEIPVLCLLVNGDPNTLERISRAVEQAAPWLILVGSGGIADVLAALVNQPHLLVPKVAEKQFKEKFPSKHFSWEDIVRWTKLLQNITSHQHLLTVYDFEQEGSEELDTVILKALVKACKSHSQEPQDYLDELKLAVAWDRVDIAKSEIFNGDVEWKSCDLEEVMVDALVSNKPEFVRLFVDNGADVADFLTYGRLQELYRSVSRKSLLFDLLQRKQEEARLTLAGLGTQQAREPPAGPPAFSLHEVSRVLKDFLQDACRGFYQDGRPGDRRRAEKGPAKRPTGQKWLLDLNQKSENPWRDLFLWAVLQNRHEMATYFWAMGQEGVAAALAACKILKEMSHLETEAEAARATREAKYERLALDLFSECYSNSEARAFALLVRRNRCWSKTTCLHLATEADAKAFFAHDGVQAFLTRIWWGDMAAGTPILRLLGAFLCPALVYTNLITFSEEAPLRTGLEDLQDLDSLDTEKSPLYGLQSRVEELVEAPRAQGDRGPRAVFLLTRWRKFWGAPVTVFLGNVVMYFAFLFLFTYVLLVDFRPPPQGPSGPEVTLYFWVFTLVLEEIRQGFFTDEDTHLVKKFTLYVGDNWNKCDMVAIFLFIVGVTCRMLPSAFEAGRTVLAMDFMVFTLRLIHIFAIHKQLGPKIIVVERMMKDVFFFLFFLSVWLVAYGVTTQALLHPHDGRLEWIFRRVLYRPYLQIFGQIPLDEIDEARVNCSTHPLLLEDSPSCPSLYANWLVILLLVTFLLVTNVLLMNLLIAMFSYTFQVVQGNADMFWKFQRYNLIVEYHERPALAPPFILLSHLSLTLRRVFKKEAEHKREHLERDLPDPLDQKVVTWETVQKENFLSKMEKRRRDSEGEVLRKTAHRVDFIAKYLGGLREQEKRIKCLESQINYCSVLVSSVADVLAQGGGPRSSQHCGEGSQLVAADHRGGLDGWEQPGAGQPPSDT
Excerpt: as §1
(§8) For those compounds showing activity on one or more receptor(s), the concentration/response curves were plotted and the EC50 calculated.
as §2, §3, §4, §5, §6, §7

| Compound | Activity on TRPM5 (in words) |
| --- | --- |
| C=CC(C)(C)c1cc2cc3c(cc2oc1=O)OC(C(C)(C)OC(C)=O)C3 (centres unmarked) [Compound 2, rutamarin] | activated |

same assay, conditions: concentration/response curve; values with ≥ estimated

| Compound | EC50 [µM] |
| --- | --- |
| C=CC(C)(C)c1cc2cc3c(cc2oc1=O)OC(C(C)(C)OC(C)=O)C3 (centres unmarked) [Compound 2, rutamarin] | ≥ 26.7 |

same assay, conditions: single dose, qualitative

| Compound | TRPM5 screening result |
| --- | --- |
| C[C@@H]1O[C@@H](OC[C@H]2O[C@@H](Oc3c(-c4ccc(O)c(O)c4)oc4cc(O)cc(O)c4c3=O)[C@H](O)[C@@H](O)[C@@H]2O)[C@H](O)[C@H](O)[C@H]1O [Compound 1, rutin] | − |
| C=CC(C)(C)c1cc2cc3c(cc2oc1=O)OC(C(C)(C)OC(C)=O)C3 (centres unmarked) [Compound 2, rutamarin] | + |
| COc1c2ccoc2cc2oc(=O)ccc12 [Compound 3, bergapten] | − |
| COc1c2occc2cc2ccc(=O)oc12 [Compound 4, xanthotoxin] | − |
| COc1c2ccoc2c(OC)c2oc(=O)ccc12 [Compound 5, isopimpinellin] | − |
| COc1cc2nc3occc3c(OC)c2cc1OC [Compound 7, kokusaginin] | − |
| COc1ccc2c(OC)c3ccoc3nc2c1OC [Compound 8, skimmianine] | − |
| CCCCCCCCCC(C)=O [Compound 9, 2-undecanone] | − |
| CCCCCCCC(C)=O [Compound 10, 2-nonanone] | − |

target: T3, TAS2R10 (Homo sapiens, UniProt Q9NYW0); experiment: In vitro calcium imaging assay on cloned TAS2R10 in transfected HEK293T cells; assay type: cell-based; settings: not given
T3 construct: expressed in transfected cells; host or cells: HEK293T
T3 sequence (Q9NYW0 1-307): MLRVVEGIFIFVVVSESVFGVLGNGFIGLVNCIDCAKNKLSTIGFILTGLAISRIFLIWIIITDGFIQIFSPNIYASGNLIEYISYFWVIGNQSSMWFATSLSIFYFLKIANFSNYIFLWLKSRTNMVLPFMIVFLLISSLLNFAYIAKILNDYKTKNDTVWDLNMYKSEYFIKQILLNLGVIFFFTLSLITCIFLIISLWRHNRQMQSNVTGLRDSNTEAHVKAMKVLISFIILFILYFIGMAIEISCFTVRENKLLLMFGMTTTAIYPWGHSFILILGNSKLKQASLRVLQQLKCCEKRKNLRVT
Excerpt: as §1, §8, §2, §3, §4
For the bitter platform experiments, cells were cultured, transfected and analyzed as previously described.
For the bitter platform experiments, data analyses were performed as previously described.
as §7

| Compound | Activity on TAS2R10 (in words) | EC50 [µM] |
| --- | --- | --- |
| COc1c2ccoc2cc2oc(=O)ccc12 [Compound 3, bergapten] | selective and strong agonist |  |
| COc1c2occc2cc2ccc(=O)oc12 [Compound 4, xanthotoxin] | responded | ≥ 20.6 |

same assay, conditions: concentration/response curve; values with ≥ estimated, curve did not saturate; read-out: EC50 TAS2R10

| Compound | EC50 [µM] |
| --- | --- |
| COc1c2ccoc2cc2oc(=O)ccc12 [Compound 3, bergapten] | 2.8 |
| COc1c2ccoc2c(OC)c2oc(=O)ccc12 [Compound 5, isopimpinellin] | 12 |

same assay, conditions: single dose, qualitative

| Compound | TAS2R10 screening result |
| --- | --- |
| C[C@@H]1O[C@@H](OC[C@H]2O[C@@H](Oc3c(-c4ccc(O)c(O)c4)oc4cc(O)cc(O)c4c3=O)[C@H](O)[C@@H](O)[C@@H]2O)[C@H](O)[C@H](O)[C@H]1O [Compound 1, rutin] | − |
| C=CC(C)(C)c1cc2cc3c(cc2oc1=O)OC(C(C)(C)OC(C)=O)C3 (centres unmarked) [Compound 2, rutamarin] | − |
| COc1c2ccoc2cc2oc(=O)ccc12 [Compound 3, bergapten] | +++ |
| COc1c2occc2cc2ccc(=O)oc12 [Compound 4, xanthotoxin] | + |
| COc1c2ccoc2c(OC)c2oc(=O)ccc12 [Compound 5, isopimpinellin] | ++ |
| COc1cc2nc3occc3c(OC)c2cc1OC [Compound 7, kokusaginin] | − |
| COc1ccc2c(OC)c3ccoc3nc2c1OC [Compound 8, skimmianine] | − |
| CCCCCCCCCC(C)=O [Compound 9, 2-undecanone] | − |
| CCCCCCCC(C)=O [Compound 10, 2-nonanone] | − |
